Reference: ChEMBL document CHEMBL1150932, “Norepinephrine-augmenting lipolytic effectors from Astilbe thunbergii rhizomes” (J Nat Prod, 1998)
Activity calls are given as the source filed them. The rule behind the calls is not given here.

Key:
[1] = Stimulation of ACTH-induced lipolysis in Wistar rat fat cells assessed as free fatty acid release per mL of packed fat cells at 100 ug after 1 hr relative to ACTH; format: functional
[2] = Effect on lipolysis in cell-free system consisting sonicated lipid droplets assessed as free fatty acid release at 1000 ug in presence of hormone-sensitive lipase relative to untreated control; format: physicochemical
Rattus norvegicus [3] = species on record: Rattus norvegicus; assay: Inhibition of insulin-induced lipogenesis from [U-14C]glucose in Wistar rat fat cells after 1 hr by liquid scintillation counting; format: functional, cell-based
[4] = Enhancement of norepinephrine-induced lipolysis in cell-free system consisting sonicated lipid droplets assessed as free fatty acid release at 1000 ug in presence of hormone-sensitive lipase relative to untreated control; format: physicochemical
Rattus norvegicus [5] = species on record: Rattus norvegicus; assay: Enhancement of norepinephrine-induced lipolysis in Wistar rat fat cells assessed as free fatty acid release per mL of packed fat cells after 1 hr relative to norepinephrine; format: functional, cell-based
[6] = Stimulation of ACTH-induced lipolysis in Wistar rat fat cells assessed as free fatty acid release per mL of packed fat cells at 1000 ug after 1 hr relative to ACTH; format: functional
Rattus norvegicus [7] = species on record: Rattus norvegicus; assay: Enhancement of norepinephrine-induced lipolysis in cell-free system consisting endogenous lipid droplets from Wistar rat fat cells assessed as free fatty acid release per mL of packed fat cells after 1 hr in presence of hormone-sensitive lipase; format: functional
Rattus norvegicus [8] = species on record: Rattus norvegicus; assay: Induction of lipolysis in Wistar rat fat cells assessed as free fatty acid release per mL of packed fat cells after 1 hr relative to norepinephrine; format: functional, cell-based

Row | Activity [2] | Activity [4] | SMILES | Activity [1] | Activity (Rattus norvegicus [3]) | Activity (Rattus norvegicus [5]) | Activity [6] | Activity (Rattus norvegicus [7]) | Activity (Rattus norvegicus [8])
1 | 95.7% | 98.5% | C[C@@H]1O[C@@H](O[C@H]2C(=O)c3c(O)cc(O)cc3O[C@@H]2c2ccc(O)c(O)c2)[C@H](O)[C@H](O)[C@H]1O [ASTILBIN] | 195.6% | Active | Active | 278.4% | Active | inactive
2 | 98.5% | 100% | C[C@@H]1O[C@@H](Oc2coc3cc(O)cc(O)c3c2=O)[C@H](O)[C@H](O)[C@H]1O [EUCRYPHIN] | 79.4% | Active | Active | 332.8% | Active | inactive
3 | 98.6% | 96.2% | COc1c(O)cc2c(c1O)[C@@H]1O[C@H](CO)[C@@H](O)[C@H](O)[C@H]1OC2=O [BERGENIN] | 105.9% | Active | Active | 356.9% | Active | inactive
